The subject of series [1] is TgCRND8 mice. In words: Survival census (Kaplan-Meier). It counts as in vivo, mouse. The settings on record: prophylactic treatment, vs untreated, n=35 per group. Here is the method: Survival Census: The probability of survival was assessed by the Kaplan-Meier technique, computing the probability of survival at every occurrence of death, thus making it suitable for small sample sizes. For the analyses of survival, 35 mice were used for each treatment group. The Tarone-Ware test was used to assess effects of treatments.
Survival census. The probability of survival was assessed using the Kaplan-Meier technique, computing the probability of survival at every occurrence of death, thus making it suitable for small sample sizes. For the analyses of survival, 35 mice were used for each treatment group. The Tarone-Ware test was used to assess effects of treatments.

Series [2] relates to TgCRND8 mice. In words: Cerebral amyloid plaque burden (anti-Aβ immunostaining, image analysis). The settings on record: TgCRND8 mice at six months of age; vs untreated. It counts as in vivo, mouse. How it is done: Cerebral amyloid burden. […] To generate sets of systematic uniform random sections, 5 μm serial sections were collected across the entire hemisphere. Sets of sections at 50 μm intervals were used for analyses (10-14 sections/set). Plaques were identified after antigen retrieval with formic acid, and incubation with primary anti-Aβ antibody (Dako M-0872), followed by secondary antibody (Dako StreptABCcomplex/horseradish kit). End products were visualized with DAB and were counter-stained with luxol fast blue. Amyloid plaque burden was assessed with Leco IA-3001 image analysis software interfaced with Leica microscope and Hitachi KP-M1U CCD video camera. Openlab imaging software (Improvision, Lexington, Mass.) was then used to convert micrographs to binary images for plaque number and plaque area determinations. Vascular amyloid burden was defined as amyloid originating from or surrounding blood vessels and was analysed similarly. Cerebral Aβ burden. […] Sets of sections at […] intervals for analyses (10-14 sections per set) were used. Plaques with primary Aβ-specific antibody (Dako M-0872) were identified and visualized with DAB. AP plaque burden was assessed with Openlab imaging software (Improvision) and used to convert micrographs to binary images for determinations of plaque number and plaque area. Vascular Aβ burden was defined as Aβ plaques originating from or surrounding blood vessels and was analyzed similarly. Cerebral Aβ burden. […] To generate sets of systematic uniform random sections, 5 μm serial sections were collected across the entire hemisphere. Sets of sections at 50 μm intervals were used for analyses (10-14 sections/set). Plaques were identified after antigen retrieval with formic acid, and incubation with primary anti-Aβ antibody (Dako M-0872), followed by secondary antibody (Dako StreptABCcomplex/horseradish kit). End products were visualized with DAB and were counter-stained with luxol fast blue. Aβ plaque burden was assessed with Leco IA-3001 image analysis software interfaced with Leica microscope and Hitachi KP-M1U CCD video camera. Openlab imaging software (Improvision, Lexington, Mass.) was then used to convert micrographs to binary images for plaque number and plaque area determinations. Vascular Aβ burden was defined as Aβ plaques originating from or surrounding blood vessels and was analyzed similarly.

Series [3] relates to TgCRND8 mice. In words: Morris water maze spatial reference memory test. It is filed as in vivo, mouse. The settings on record: prophylactic, 6 weeks to 6 months of age. Here is the method:
Behavioural tests: Morris Water Maze testing was performed as previously described. After non-spatial pre-training, mice underwent place discrimination training for 5 days with 4-trials per day, followed by a cued visible platform to rule out general motivational, learning deficits and motor problems, and a probe trial to evaluate memory. […] Open field test for motor activity was preformed as described previously. Duration of walking, pausing and grooming were analyzed as indices of spontaneous locomotor activity. Sensorimotor function was examined with an EconomexTM accelerating rotarod (Columbus Instruments, Columbus, Ohio), as described elsewhere. The rod was set to accelerate at a rate of 0.2 r.p.m./s, from an initial, constant speed of 5 r.p.m. Latency to fall was recorded in four daily trials, conducted at 30 min intervals. All mice were trained for seven days before testing. The test day performance score for each animal was obtained by summing its latency to fall over the four trials Behavioral tests. Morris water maze testing was carried out as previously described. After nonspatial pretraining, mice underwent place discrimination training for 5 d with four trials per day, followed by a cued visible platform trial and a probe trial. An open-field test for motor activity was carried out as described previously. Sensorimotor function was assessed with an Economex accelerating rotarod (Columbus Instruments) as previously described. Behavioural tests. Morris Water Maze testing was performed as previously described. After non-spatial pre-training, mice underwent place discrimination training for 5 days with 4-trials per day, followed by a cued visible platform to rule out general motivational, learning deficits and motor problems, and a probe trial to evaluate memory. The probe trial was conducted at 72 h after the last testing, and used an annulus-crossing index to assess spatial recall. The annulus-crossing index measures the number of passes over the original platform position relative to passes over the other three quadrants. […] Open field test for motor activity was performed as described previously

For series [4] the following is noted: 6-18 grams/day/adult or 86-257 mg/Kg/day; cited from earlier work.
Series [5] is described as follows: Pilot in vivo studies. The conditions noted are these: data not shown.
Series [6] addresses Aβ (Homo sapiens, UniProt P05067). The conditions noted are these: reference [11]; cited from earlier work.
The subject of series [7] is mouse model of Huntington disease. The conditions noted are these: oral administration; reference [26]; cited from earlier work.

The values below come from US20070197452A1, “Treatment of amyloid-related diseases” (priority 2006, published 2007).

Aβ, sequence (P05067 672-713 limits assumed): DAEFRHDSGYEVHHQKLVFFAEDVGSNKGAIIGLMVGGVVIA

Take `OC[C@@H](O)[C@@H](O)[C@H](O)[C@H](O)CO` [mannitol, reference compound]: the “survival (Kaplan-Meier cumulative survival)” value in series [1] is “not significantly different”. For the same molecule, the “plaque count as measure of total plaque burden” value in series [2] is reported as “indistinguishable from untreated TgCRND8 mice”. Also, in series [3], the “cognitive performance compared with non-Tg littermates” value is “significantly different from mannitol treated non-Tg littermates” and the “cognitive performance compared with untreated TgCRND8 mice” value was “no effect on behavior”. In addition, the “cognitive performance compared with untreated TgCRND8 mice” value in series [3] (listed as Mannitol) was “not significantly different from untreated TgCRND8 mice”.

Turning to `O[C@H]1[C@H](O)[C@@H](O)[C@H](O)[C@@H](O)[C@H]1O` [myo-cyclohexanehexol, 1,2,3,5/4,6-(myo-) cyclohexanehexol], the toxicity entry in series [4] is listed as “no toxicity”. Besides, the “benefit in pilot in vivo studies” value in series [5] is reported as “no significant benefit”. The “effectiveness in prior in vitro studies” value in series [6] is reported as “only weakly effective”.

As to `OC[C@H]1O[C@H](O[C@H]2O[C@H](CO)[C@@H](O)[C@H](O)[C@H]2O)[C@H](O)[C@@H](O)[C@@H]1O` [trehalose], the “effects in mouse model of Huntington disease” value in series [7] is “decreased polyglutamine aggregates in brain, improved motor dysfunction and extended lifespan”.
